# Data published in US10632171B2, “Melanocortin receptor-specific peptides” (Palatin Technologies, Inc., priority 2009, dated 2020).
# Peptide text beside a SMILES is read from it.
# Key:
# hMC4-R [1] = target: T1, hMC4-R (Homo sapiens (Human), UniProt P32245); assay: Competitive binding assay using Eu-NDP-α-MSH; conditions: averaged; determined using Eu-NDP-α-MSH (values marked *); read-out: MC4-R Ki
# Experimental: Alternatively, a competitive inhibition binding assay was performed employing Eu-NDP-α-MSH (PerkinElmer Life Sciences catalog No. AD0225) with determination by time-resolved fluorometry (TRF) of the lanthanide chelate. […] After incubation for 90 minutes at 37° C., the reaction was stopped by filtration over AcroWell 96-well filter plates (Pall Life Sciences). The filter plates were washed 4 times with 200 μL of ice-cold phosphate-buffered saline. DELFIA Enhancement solution (PerkinElmer Life Sciences) was added to each well. […] Each assay was conducted in duplicate and mean values were utilized. Ki values were determined by curve-fitting with Graph-Pad Prism® software using a one-site fixed-slope competition binding model.
# hMC4-R [2] = target: T1, hMC4-R; assay: Competitive inhibition binding assay using [I125]-NDP-α-MSH; conditions: averaged; determined using [I125]-NDP-α-MSH (values not marked *); read-out: MC4-R Ki
# Experimental: A competitive inhibition binding assay is performed using membrane homogenates prepared from HEK-293 cells that express recombinant hMC4-R, hMC3-R, or hMC5-R, and from B-16 mouse melanoma cells (containing endogenous MC1-R). In some instances, HEK-293 cells that express recombinant hMC1-R were employed. In the examples that follow, all MC3-R, MC4-R and MC5-R values are for human recombinant receptors. […] Membrane homogenates were incubated with 0.2 nM (for hMC4-R) 0.4 nM (for MC3-R and MC5-R) or 0.1 nM (for mouse B16 MC1-R or hMC1-R) [I^125]-NDP-α-MSH (Perkin Elmer) and increasing concentrations of test peptides of the present invention in buffer containing 25 mM HEPES buffer (pH 7.5) with 100 mM NaCl, 2 mM CaCl2, 2 mM MgCl2, 0.3 mM 1,10-phenanthroline, and 0.2% bovine serum albumin. After incubation for 60 minutes at 37° C., the assay mixture was filtered and the membranes washed three times with ice-cold buffer. Filters were dried and counted in a gamma counter for bound radioactivity. […] Maximal specific binding (100%) was defined as the difference in radioactivity (cpm) bound to cell membranes in the absence and presence of 1 μM NDP-α-MSH. […] Each assay was conducted in triplicate and the actual mean values are described, with results less than 0% reported as 0%. Ki values for test peptides of the present invention were determined using Graph-Pad Prism® curve-fitting software.
# T1 sequence (P32245 whole entry): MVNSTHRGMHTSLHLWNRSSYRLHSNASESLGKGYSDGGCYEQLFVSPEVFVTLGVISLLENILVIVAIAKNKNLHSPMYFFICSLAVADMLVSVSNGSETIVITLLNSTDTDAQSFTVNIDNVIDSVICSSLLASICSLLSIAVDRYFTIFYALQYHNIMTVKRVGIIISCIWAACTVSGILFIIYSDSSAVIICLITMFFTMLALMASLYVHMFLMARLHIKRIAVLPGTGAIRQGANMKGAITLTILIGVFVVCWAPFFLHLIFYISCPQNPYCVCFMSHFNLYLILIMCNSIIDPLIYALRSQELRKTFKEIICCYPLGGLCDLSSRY
SMILES,Ki (hMC4-R [1]),Ki (hMC4-R [2])
"CC(=O)N[C@@H](CCCNC(=N)N)C(=O)N[C@H]1CC(=O)NCCCC[C@@H](C(=O)O)NC(=O)[C@H](Cc2c[nH]c3ccccc23)NC(=O)[C@H](CCCNC(=N)N)NC(=O)[C@@H](Cc2ccccc2)NC(=O)[C@H](C)NC1=O [compound 52, Ac-Arg-cyclo(Asp-Ala- D-Phe-Arg-Trp-Lys)-OH] (HELM PEPTIDE1{[ac].R.D.A.[dF].R.W.K}$PEPTIDE1,PEPTIDE1,3:R3-8:R3$$$V2.0)",144 nM,
"CC(=O)N[C@@H](CCCNC(=N)N)C(=O)N[C@H]1CC(=O)NCCCC[C@@H](C(N)=O)NC(=O)[C@H](Cc2c[nH]c3ccccc23)NC(=O)[C@H](CCCNC(=N)N)NC(=O)[C@@H](Cc2ccccc2)NC(=O)[C@@H]2C[C@@H](O)CN2C1=O [compound 101, Ac-Arg-cyclo(Glu-Hyp- D-Phe-Arg-Trp-Orn)- NH2]",,3 nM
"CC(=O)N[C@@H](CCCNC(=N)N)C(=O)N[C@H]1CC(=O)NCCCC[C@@H](C(N)=O)NC(=O)[C@H](Cc2c[nH]c3ccccc23)NC(=O)[C@H](CCCNC(N)=O)NC(=O)[C@@H](Cc2ccccc2)NC(=O)[C@H](CCCCN)NC1=O [compound 116, Ac-Arg-cyclo(Asp-Lys- D-Phe-Cit-Trp-Lys)-NH2] (HELM PEPTIDE1{[ac].R.D.K.[dF].[Cit].W.K.[am]}$PEPTIDE1,PEPTIDE1,3:R3-8:R3$$$V2.0)",,873 nM
